Source: patent US20220088275A1, “HYDROGELS, METHODS OF MAKING, AND METHODS OF USE” (Convalesce Inc., priority 2019, published 2022)
Peptide text beside a SMILES is read from it.

Assays:
in vitro = type: cell-based; settings: human
Method: (§1) To determine the viability of cells within the hydrogels formed by L1 and L3, a Calcein-AM based toxicity assay was carried out. SHSY5Y cells were used for the toxicity assay. Cells were cultured in complete DMEM with 10% FBS, 1× Glutamax and 1% pen-strep antibiotic cocktail in a humidified incubator at 37° C. with 5% CO2. Cells cultured at 80% confluency in the culture vessel were used for the assay. SHSY5Y cells were washed with phosphate-buffered saline and treated with Accutase® to lift them of the culture vessel. Subsequently, it was neutralized with a double amount of complete media and centrifuged at 300 rpm for 5 minutes to obtain a cell pellet. Around 10,000 live cells (counted on a hemocytometer by Trypan blue exclusion) were added to 20 μL of each hydrogel and plated in a well of a 96 well polystyrene TC plate (with technical replicate=3). After 20 minutes, 100 μL complete media was added to each well. For control, a similar number of cells were added to a well without the hydrogel. 20 μL of phosphate buffer was added to each of the control wells. Cells were cultured for 24 hours before performing the Calcein-AM assay. Calcein-AM assay was carried out according to manufacturer's protocol. The viable cells were imaged with a wide-field fluorescence microscope and quantified.

SHSY5Y cells = assay: in vitro; type: cell-based; settings: incubated for 24 hours; FIG. 10
Method: as §1

[1] = Hydrogel formation from laminin derived peptides; type: physicochemical; settings: 1 mg peptide in 200 μL 20 mM phosphate buffer pH 7.4, NaCl 50 mM to 150 mM, 24 hours
Method: As an example of hydrogels based on self-aggregating peptides derived from non-amyloid proteins, laminin hydrogels were generated. Laminin was analyzed in silico to identify self-aggregating regions. After identification of such a region in the protein, its sequence was further modified to facilitate peptide self-assembly, and subsequently cross-beta sheet formation. Three peptides, L1-L3, were designed. The peptides were synthesized by a commercial vendor with 99% purity.
For forming the hydrogels, 1 mg peptide was mixed with 180 μL of 20 mM phosphate buffer, pH 7.4. The pH of this solution was raised to 10 by the gradual addition of 2N NaOH. NaCl was added to this solution in different quantities with a range from 50 mM to 150 mM final concentration. The pH of the solution was finally adjusted to 7.4 and the final volume of the solution was 200 μL. The solution was left undisturbed for 24 hours to facilitate the hydrogel formation.

Row | hydrogel formation [1] | Compound | viability at 24 h (in vitro) | viability of SHSY5Y cells relative to control (in words) (SHSY5Y cells)
1 | formed hydrogels | CC(C)C[C@H](NC(=O)[C@H](Cc1ccc(O)cc1)NC(=O)[C@H](Cc1ccccc1)NC(=O)[C@H](CC(C)C)NC(=O)[C@H](CC(C)C)NC(=O)OCC1c2ccccc2-c2ccccc21)C(=O)O [L1] (HELM PEPTIDE1{[O=C(OCC1c2ccccc2-c2ccccc21)[*:2]].L.L.F.Y.L}$$$$V2.0; C-terminus assumed) | 85% | high viability
2 | formed hydrogels | CC(C)C[C@H](NC(=O)[C@H](Cc1ccc(O)cc1)NC(=O)[C@@H](NC(=O)[C@H](CC(C)C)NC(=O)[C@H](CC(C)C)NC(=O)OCC1c2ccccc2-c2ccccc21)C(C)C)C(=O)O [L3] (HELM PEPTIDE1{[O=C(OCC1c2ccccc2-c2ccccc21)[*:2]].L.L.V.Y.L}$$$$V2.0; C-terminus assumed) | 87% | high viability
